# Source: ChEMBL document CHEMBL1817597, “Antifungal thiopeptide cyclothiazomycin B1 exhibits growth inhibition accompanying morphological changes via binding to fungal cell wall chitin” (Bioorg Med Chem, 2011)
# Calls of active or inactive are those of the source. The calls are words filed in the database; no cut-off is given here.
# Assays:
# Bacillus subtilis = assay: Antimicrobial activity against Bacillus subtilis IFO 3007 after 24 hrs by broth microdilution method; type: functional, organism-based
# [1] = tested on: Schizosaccharomyces pombe; assay: Antimicrobial activity against Schizosaccharomyces pombe IFO 0342 after 24 hrs by broth microdilution method; type: functional, organism-based
# Mucor mucedo [2] = assay: Antimicrobial activity against Mucor mucedo IFO 7684 after 24 hrs by broth microdilution method; type: functional; settings: IFO 7684, 24 h
# Mucor javanicus = assay: Antimicrobial activity against Mucor javanicus IFO 4569 after 24 hrs by broth microdilution method; type: functional; settings: IFO 4569, 24 h
# Fusarium oxysporum [3] = assay: Antimicrobial activity against Fusarium oxysporum IFO 7152 after 24 hrs by broth microdilution method; type: functional; settings: IFO 7152, 24 h
# Fusarium solani [4] = assay: Antimicrobial activity against Fusarium solani NBRC 5899 after 24 hrs by broth microdilution method; type: functional; settings: NBRC 5899, 24 h
# Fusarium solani [5] = assay: Antimicrobial activity against Fusarium solani NBRC 8505 after 24 hrs by broth microdilution method; type: functional; settings: NBRC 8505, 24 h
# [6] = tested on: Fusarium sporotrichioides; assay: Antimicrobial activity against Fusarium sporotrichioides NBRC 33236 after 24 hrs by broth microdilution method; type: functional; settings: NBRC 33236, 24 h
# Fusarium avenaceum = assay: Antimicrobial activity against Fusarium avenaceum NBRC 33237 after 24 hrs by broth microdilution method; type: functional; settings: NBRC 33237, 24 h
# Fusarium fujikuroi = assay: Antimicrobial activity against Gibberella fujikuroi NBRC 6349 after 24 hrs by broth microdilution method; type: functional; settings: NBRC 6349, 24 h
# Aspergillus nidulans [7] = assay: Antimicrobial activity against Aspergillus nidulans FGSC A4 after 24 hrs by broth microdilution method; type: functional; settings: FGSC A4, 24 h
# Rhizopus arrhizus [8] = assay: Antimicrobial activity against Rhizopus oryzae IFO 4766 after 24 hrs by broth microdilution method; type: functional; settings: IFO 4766, 24 h
# Fusarium oxysporum [9] = assay: Antimicrobial activity against Fusarium oxysporum NBRC 5942 at <6.55 uM after 24 hrs by broth microdilution method; type: functional, organism-based
# Fusarium oxysporum [10] = assay: Antimicrobial activity against Fusarium oxysporum IFO 7152 at <6.55 uM after 24 hrs by broth microdilution method; type: functional, organism-based
# Fusarium solani [11] = assay: Antimicrobial activity against Fusarium solani NBRC 5899 at <6.55 uM after 24 hrs by broth microdilution method; type: functional, organism-based
# Fusarium solani [12] = assay: Antimicrobial activity against Fusarium solani NBRC 8505 at <6.55 uM after 24 hrs by broth microdilution method; type: functional, organism-based
# Fusarium graminearum = assay: Antimicrobial activity against Gibberella zeae NBRC 8850 at <6.55 uM after 24 hrs by broth microdilution method; type: functional, organism-based
# Penicillium chrysogenum = assay: Antimicrobial activity against Penicillium chrysogenum IFO 4626 at <6.55 uM after 24 hrs by broth microdilution method; type: functional, organism-based
# Aspergillus fumigatus = assay: Antimicrobial activity against Aspergillus fumigatus IFO 5840 at <6.55 uM after 24 hrs by broth microdilution method; type: functional, organism-based
# Aspergillus nidulans [13] = assay: Antimicrobial activity against Aspergillus nidulans FGSC A4 at <6.55 uM after 24 hrs by broth microdilution method; type: functional, organism-based
# Rhizopus arrhizus [14] = assay: Antimicrobial activity against Rhizopus oryzae IFO 4766 at <6.55 uM after 24 hrs by broth microdilution method; type: functional, organism-based
# Mucor mucedo [15] = assay: Induction of morphological changes in Mucor mucedo IFO 7684 assessed as thickening of hyphae at MIC after 24 hrs by microscopic analysis; type: functional, organism-based
# Fusarium oxysporum [16] = assay: Induction of morphological changes in Fusarium oxysporum NBRC 5942 assessed as thickening of hyphae at MIC after 24 hrs by microscopic analysis; type: functional, organism-based
# Mucor mucedo [17] = assay: Induction of morphological changes in Mucor mucedo IFO 7684 assessed as abnormal hyphae branching at MIC after 24 hrs by microscopic analysis; type: functional, organism-based
# Mucor mucedo [18] = assay: Antifungal activity against Mucor mucedo IFO 7684 under hyperosmotic shock at 0.026 uM after 2 days by paper disc method; type: functional, organism-based
# Mucor mucedo [19] = assay: Inhibition of chitin synthase in Mucor mucedo IFO 7684 assessed as incorporation of GlcNAc from [14C]-UDP-GlcNAc into acid-insoluble fractions at 4 ug/ml after 55 mins by liquid scintillation counting
# [20] = Binding affinity to chitin at 6.55 uM after 30 mins by HPLC analysis
# [21] = Binding affinity to chitosan at 6.55 uM after 30 mins by HPLC analysis
# [22] = Binding affinity to curdlan at 6.55 uM after 30 mins by HPLC analysis
# Mucor mucedo [23] = assay: Binding affinity to cell wall polysaccharides in Mucor mucedo IFO 7684 at 6.55 uM after 30 mins by HPLC analysis
# Fusarium oxysporum [24] = assay: Binding affinity to cell wall polysaccharides in Fusarium oxysporum NBRC 5942 at 6.55 uM after 30 mins by HPLC analysis
# Mucor mucedo [25] = assay: Effect on cell wall re-generation in Mucor mucedo IFO 7684 spheroplasts under hyperosmotic condition at 0.026 uM after 18 hrs by microscopic analysis; type: functional
smiles,measurement,setting,value
C=C1NC(=O)[C@H]2CSC(=N2)c2csc(n2)-c2ccc3c(n2)[C@H](C)NC(=O)[C@@H]2CCCN2C(=O)/C(=C/C)NC(=O)CNC(=O)[C@H](CCCNC(=N)N)NC(=O)C(C)(NC(=O)/C(=C/C)NC(=O)C2CSC(=N2)[C@H](CC(N)=O)NC3=O)SC[C@@H](C(=O)O)NC(=O)[C@H]2CSC(=N2)c2csc(n2)-c2csc1n2 [CYCLOTHIAZOMYCIN B1],Activity,Bacillus subtilis,inactive
same,Activity,[1],inactive
same,MIC,Mucor mucedo [2],0.039 µg/mL
same,MIC,Mucor javanicus,0.078 µg/mL
same,MIC,Fusarium oxysporum [3],0.25 µg/mL
same,MIC,Fusarium solani [4],0.25 µg/mL
same,MIC,Fusarium solani [5],0.25 µg/mL
same,MIC,[6],0.031 µg/mL
same,MIC,Fusarium avenaceum,0.25 µg/mL
same,MIC,Fusarium fujikuroi,0.25 µg/mL
same,MIC,Aspergillus nidulans [7],> 1000 µg/mL
same,MIC,Rhizopus arrhizus [8],> 1000 µg/mL
same,Activity,Fusarium oxysporum [9],inactive
same,Activity,Fusarium oxysporum [10],inactive
same,Activity,Fusarium solani [11],inactive
same,Activity,Fusarium solani [12],inactive
same,Activity,Fusarium graminearum,inactive
same,Activity,Penicillium chrysogenum,inactive
same,Activity,Aspergillus fumigatus,inactive
same,Activity,Aspergillus nidulans [13],inactive
same,Activity,Rhizopus arrhizus [14],inactive
same,Activity,Mucor mucedo [15],Active
same,Activity,Fusarium oxysporum [16],Active
same,Activity,Mucor mucedo [17],Active
same,Activity,Mucor mucedo [18],inactive
same,inhibition,Mucor mucedo [19],inactive
same,Activity,[20],Active
same,Activity,[21],inactive
same,Activity,[22],inactive
same,Activity,Mucor mucedo [23],inactive
same,Activity,Fusarium oxysporum [24],inactive
same,Activity,Mucor mucedo [25],inactive
